Test results: ChEMBL document CHEMBL3102825, “Exploration of a series of 5-arylidene-2-thioxoimidazolidin-4-ones as inhibitors of the cytolytic protein perforin” (J Med Chem, 2013)
The source made the active and inactive calls. The calls are words filed in the database; no cut-off is given here.

Target: Perforin-1 (Mus musculus) (UniProt P10820)
Assay: Reversible binding affinity to recombinant mouse perforin by SPR analysis

Chain of Perforin-1 (Mus musculus) (P10820 whole entry, looked up): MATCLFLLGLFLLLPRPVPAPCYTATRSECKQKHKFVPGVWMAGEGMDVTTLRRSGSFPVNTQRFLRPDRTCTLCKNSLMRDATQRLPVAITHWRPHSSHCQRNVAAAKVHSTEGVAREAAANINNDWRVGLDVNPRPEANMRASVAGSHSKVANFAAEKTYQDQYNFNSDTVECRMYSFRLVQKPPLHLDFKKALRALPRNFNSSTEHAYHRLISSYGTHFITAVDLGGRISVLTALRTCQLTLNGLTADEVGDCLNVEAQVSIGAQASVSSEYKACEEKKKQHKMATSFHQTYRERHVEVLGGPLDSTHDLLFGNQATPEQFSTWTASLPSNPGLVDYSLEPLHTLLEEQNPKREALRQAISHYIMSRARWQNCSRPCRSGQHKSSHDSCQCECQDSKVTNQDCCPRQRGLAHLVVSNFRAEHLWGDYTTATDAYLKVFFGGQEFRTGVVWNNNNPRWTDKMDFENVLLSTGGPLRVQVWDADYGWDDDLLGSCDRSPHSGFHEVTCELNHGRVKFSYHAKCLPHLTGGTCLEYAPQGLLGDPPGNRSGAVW

SMILES | Activity
CC1c2cc(-c3ccc(/C=C4/[N-]C(=S)NC4=O)s3)ccc2C(=O)N1C.[Na+] (configuration not stated) | Active
O=C1NC(=S)[N-]/C1=C/c1ccc(-c2ccc3c(c2)CCNC3=O)s1.[Na+] | Active
